The text below walks through data of the METLIN SMRT retention time set (Domingo-Almenara et al. 2019).

This series in a line: gradient 5% acetonitrile 3 min, to 50% in 2 min, to 85% in 15 min, held 3 min, 100 µL/min. The conditions noted are these: column: Zorbax Extend-C18 2.1 x 50 mm; eluents: water / acetonitrile, 0.1% formic acid. An outline of the steps:
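Pure standards were analyzed in mixtures of ~100 molecules using HPLC coupled to a quadrupole time-of-flight mass spectrometer, in both positive and negative ionization mode. Separation used a Zorbax Extend-C18 column (2.1 × 50 mm, 1.8 μm) at 100 μL/min, with water and acetonitrile each containing 0.1% formic acid. Dead and dwell volumes were 40 μL and 900 μL, and data were collected over 3 months. Retention time was read from computationally picked adduct peaks, each inspected manually.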
As for `Cc1ccc(Nc2nc(C(=O)NCCc3cnc[nH]3)nc3ccccc23)cc1`, the RP-LC retention time is 590 s.

As for `CN(C)C(=O)c1ccc2c(c1)nc(CN1CCN(C(=O)c3ccc(C#N)cc3)CC1)n2C`, the RP-LC retention time came to 597 s.

Regarding `Cc1cccc(N2CCN(S(=O)(=O)c3ccc(-c4nnc(C5CC5)o4)o3)CC2)c1`, the RP-LC retention time was found to be 1020 s.

`Cc1[nH]c2ccccc2c1S(=O)(=O)CCNC(=O)Nc1cccs1` returned an RP-LC retention time of 683 s.

As to `Cc1ccc(CNC2=NCCNC23CCN(S(=O)(=O)c2ccc(F)cc2)CC3)cc1`, the RP-LC retention time turned out to be 733 s.

In turn, `CCN1C(=O)c2ccccc2Oc2ccc(C(=O)NCc3ccc4c(c3)OCO4)cc21` gave an RP-LC retention time of 1170 s.

The compound `CC1CN(C2CCCCC2)c2nc3c(c(=O)n(CC(=O)O)c(=O)n3C)n2C1` (centres undefined) came in with an RP-LC retention time of 773 s.

With `CC(C)NC(=O)c1ccc(OCC2CCN(C(=O)c3ccc(F)cc3Cl)CC2)cc1`, the RP-LC retention time was found to be 888 s.

Compound `Cc1cc(-c2nnc(-c3ccccc3)o2)c(C)n1CC(=O)Nc1ccc(Cl)cc1` gave an RP-LC retention time of 1020 s.

With `Cc1noc(C)c1S(=O)(=O)N1CC(c2nnc(-c3ccncc3)o2)C2(CCOCC2)C1` (centres undefined), the RP-LC retention time stood at 663 s.

Take `O=C(NC1CCCCCC1)C1CCCN(C(=O)c2cc(-c3ccncc3)n[nH]2)C1` (centres undefined): the RP-LC retention time worked out at 627 s.

In turn, `Cc1ccc(-n2nc(C)c(S(=O)(=O)N3CCC(C(=O)NCc4cccs4)CC3)c2C)cc1` showed an RP-LC retention time of 919 s.

As for `CC1(CNC(=O)COc2ccc(F)cc2)CCOCC1`, the RP-LC retention time came to 750 s.

Consider `O=C(Cc1ccsc1)Nc1ccc(N2CCN(Cc3ccccc3)C2=O)nc1`, for which the RP-LC retention time came out at 643 s.

With `O=C(COc1ccc(F)cc1)N1CCN2CCS(=O)(=O)N(C3CC3)C(=O)C2C1` (centres undefined), the RP-LC retention time was determined as 773 s.

Compound `Cc1nc2cc(-c3noc(-c4ccccc4C)n3)ccc2o1` showed an RP-LC retention time of 640 s.

Regarding `CC1=C(c2ccccc2)S(=O)(=O)N=C1N1CCCN(C(=O)Cc2ccsc2)CC1`, the RP-LC retention time was determined as 721 s.

Consider `CC1CCN(S(=O)(=O)c2ccc(-c3nnc(C(=O)NCCCN4CCCC4=O)o3)cc2)CC1`, for which the RP-LC retention time came out at 792 s.

With `Nc1cc(C2CCN(C(=O)c3ccc(Br)cc3)CC2)no1`, the RP-LC retention time stood at 716 s.

In the case of `Cc1nn(C(C)C(=O)NCCCN2CCc3ccccc3C2)c(=O)c2c(C)n(-c3ccccc3)nc12` (centres undefined), the RP-LC retention time is 690 s.

In turn, `CCCN1C(=O)c2c(C(=O)NCc3ccccc3Cl)ncn2CC1(C)C(=O)NC1CCCC1` (centres undefined) yielded an RP-LC retention time of 868 s.

`COc1ccc(-n2nc(C)c3sc(N4CCCC(C(=O)NC5CCCCC5)C4)nc32)cc1` (centres undefined) registered an RP-LC retention time of 1110 s.

In turn, `COc1ccc(C)cc1NC(=O)Cn1nc2nc(N3CCCC(C)C3)ccn2c1=O` (centres undefined) had an RP-LC retention time of 841 s.

With `CN(CC1CCCO1)S(=O)(=O)c1ccc(C(=O)N2CCc3ccccc3C2)cc1` (centres undefined), the RP-LC retention time worked out at 808 s.

On to `CCc1ccccc1NC(=O)Cc1nnc(-c2cnccn2)o1`, for which the RP-LC retention time amounted to 685 s.

As to `Cn1nc(C(=O)Nc2ccccc2)c2c1CCN(C(=O)CCC(=O)N1CCOCC1)C2`, the RP-LC retention time worked out at 668 s.

In the case of `Cc1ccc2ncn(C3CCN(S(=O)(=O)c4ccc(F)c(F)c4)CC3)c(=O)c2c1`, the RP-LC retention time was 946 s.

Regarding `CC1=C(c2ccccc2)S(=O)(=O)N=C1N1CCCN(C(=O)C2CCCCC2)CC1`, the RP-LC retention time amounted to 868 s.

`CCCNC(=O)N1CCCCCC1CN1CCOCC1` (centres undefined) showed an RP-LC retention time of 580 s.

In the case of `CCc1cccc(C)c1NC(=O)Cn1c(CC)nc2c(c1=O)CN(Cc1ccccc1)CC2`, the RP-LC retention time stood at 677 s.

The compound `Cc1cc(C)c(S(=O)(=O)N2CCc3nn(CC(C)C)c(=O)n3CC2)c(C)c1` yielded an RP-LC retention time of 664 s.

`O=C(Nc1ccccc1)N1CCC(CCOc2cccnc2)CC1` registered an RP-LC retention time of 638 s.

As to `CCNc1cc(N2CCCC(CCC(=O)N3CCC(C(=O)OCC)CC3)C2)ncn1` (centres undefined), the RP-LC retention time came to 646 s.

On to `OC[C@@H]1CN(Cc2ccncc2F)C[C@H]1c1nc(-c2cccnc2)no1`, for which the RP-LC retention time was determined as 560 s.

Compound `CCCNC(=O)c1cc(=O)[nH]c2ccc(F)cc12` registered an RP-LC retention time of 635 s.

The compound `COc1nn(C)cc1C(=O)Nc1cc(C)ns1` registered an RP-LC retention time of 598 s.

Regarding `COC(=O)c1cccc(NC(=O)NCCCn2c(C(F)(F)F)nc3cccnc32)c1`, the RP-LC retention time is 773 s.

As to `O=C(C1CCCN(c2ncc(-c3ccc(F)cc3)cn2)C1)N1CCCC1` (centres undefined), the RP-LC retention time came out at 863 s.

For the compound `O=C(NC1CC1)C1CCN(c2nc3ccc(-c4cccnc4)nc3s2)CC1`, the RP-LC retention time was found to be 598 s.

As to `COc1ccc2c(c1)CCc1sc(NC(=O)c3cc(OC)c(OC)c(OC)c3)nc1-2`, the RP-LC retention time was determined as 1080 s.

The compound `O=C(Nc1cccc(C(F)(F)F)c1)Nc1cc(Cl)ccc1C(=O)O` came in with an RP-LC retention time of 1080 s.

In turn, `Cn1cc(CC(=O)NCC2CC2)c2cccnc21` had an RP-LC retention time of 593 s.

The compound `Cc1nc(-c2cn(C(C)C)c3ncccc23)sc1C(=O)Nc1ccc(F)cc1` showed an RP-LC retention time of 947 s.

Take `CCc1nc(-c2csc(S(=O)(=O)N3CCCC(C(=O)Nc4cccc(Cl)c4)C3)c2)no1` (centres undefined): the RP-LC retention time came out at 1040 s.

`O=C(NCc1ccccn1)C1(CCO)CCN(c2ncccn2)C1` (centres undefined) had an RP-LC retention time of 522 s.

On to `Fc1ccc(-c2noc(-c3nnc(NCCN4CCOCC4)c4ccccc34)n2)cc1`, for which the RP-LC retention time stood at 701 s.

`CN(C)c1cccc(-c2nc(-c3ccc4c(c3)nnn4CCC(=O)N3CCCC3)no2)c1` returned an RP-LC retention time of 990 s.

In the case of `Cc1[nH]c(C(=O)N2CCC(CC(=O)NCc3ccccc3F)CC2)c(C)c1C(=O)OC(C)C`, the RP-LC retention time was 1030 s.

For the compound `CC1(C)C(=O)Nc2ccc(S(=O)(=O)N3CCC(c4noc(-c5ccccc5)n4)C3)cc21` (centres undefined), the RP-LC retention time is 883 s.

The compound `CCC1CN2C=NC(N3CCN(C(=O)Nc4cccc(F)c4C)CC3)=CC2=N1` (centres undefined) showed an RP-LC retention time of 671 s.

As for `O=C(Cn1c(=O)c2cccn2c2ccc(F)cc21)NCCc1ccco1`, the RP-LC retention time worked out at 774 s.

Take `CC[C@@H](C)[C@@H](O)[C@H](C)C(=O)[C@H](C)/C=C(\C)C[C@H](C)[C@@H]1OC(=O)[C@H]1CC`: the RP-LC retention time turned out to be 1250 s.

In turn, `CN(C)C(=O)Cn1c(=O)c2cccn2c2ccccc21` gave an RP-LC retention time of 666 s.

On to `CCOC(=O)c1cnc2nc(C)ccc2c1Nc1ccc(O)cc1`, for which the RP-LC retention time was determined as 618 s.

With `CC(NC(=O)c1ccco1)c1nc2ccccc2n1CC(=O)N1CCCCC1` (centres undefined), the RP-LC retention time was determined as 627 s.

As for `Cc1ccc(-c2noc(C3CCCN3S(=O)(=O)c3cccc(Cl)c3C)n2)cc1` (centres undefined), the RP-LC retention time amounted to 1270 s.

The compound `CCCn1c(=O)c(C)nc2cc(-c3noc(-c4ccc(F)cc4)n3)ccc21` displayed an RP-LC retention time of 1200 s.

Compound `CCc1ccc(-c2cc(C(=O)N3CCN(Cc4noc5ccccc45)CC3)[nH]n2)cc1` registered an RP-LC retention time of 772 s.

For `O=C(NC1CCN(c2cc(-c3ccccc3)[nH]n2)C1)c1ccccc1F` (centres undefined), the RP-LC retention time amounted to 756 s.

Compound `CC1=NS(=O)(=O)N(C)C=C1C(=O)OCc1nc(-c2ccccc2Cl)no1` had an RP-LC retention time of 954 s.

In turn, `CC1=C(c2ccc(F)cc2)S(=O)(=O)N=C1N1CCCN(C(=O)CC(C)C)CC1` had an RP-LC retention time of 814 s.

Compound `Cc1c(Cl)cccc1NC(=O)N1CC(n2cnnc2-c2ccccc2)C1` gave an RP-LC retention time of 720 s.

Compound `COCCN1CCn2cc(S(=O)(=O)Nc3ccc(F)cc3F)cc2C1=O` showed an RP-LC retention time of 694 s.

In turn, `O=C(COCc1nnc(C(=O)Nc2cccc(F)c2)s1)NCCc1c[nH]c2ccccc12` returned an RP-LC retention time of 893 s.

As to `O=C(Nc1cccc(C(=O)NCCC2=CCCCC2)c1)C1=CSCCO1`, the RP-LC retention time stood at 925 s.

Turning to `O=S(=O)(Cc1ccccc1Cl)N1CCC(CN2CCCCCC2)CC1`, the RP-LC retention time was 675 s.

With `CCOc1cc(C(=O)Nc2nc(-c3ccc(OC)cc3)c(C)s2)cc(OCC)c1OCC`, the RP-LC retention time worked out at 1360 s.

Compound `COc1ccc(CNS(=O)(=O)c2ccccc2-c2nc(-c3ccc(F)cc3)no2)cc1` had an RP-LC retention time of 1160 s.

With `Cc1ccc(Nc2nc(C)cc(N3CCN(C(=O)Nc4ccc(F)c(Cl)c4)CC3)n2)cc1`, the RP-LC retention time was 811 s.

Take `CCCONC(=O)Nc1ccccc1[N+](=O)[O-]`: the RP-LC retention time amounted to 787 s.

Compound `O=C(Cn1cnc2nc3c(cc2c1=O)CCCC3)Nc1ccc(Cl)cc1` showed an RP-LC retention time of 761 s.

As for `CCCS(=O)(=O)N1CC(n2cc(C(=O)N(C)C)nn2)C1`, the RP-LC retention time came to 626 s.

For the compound `Cc1cc(Nc2nc(N[C@@H](C)c3ncc(F)cn3)ncc2Cl)n[nH]1`, the RP-LC retention time amounted to 622 s.

`CCC(=O)N1CCCC1c1nc2ccccc2n1CC(=O)N(c1ccccc1)C(C)C` (centres undefined): the RP-LC retention time was 709 s.

`CCC(=O)Nc1ccc(-n2cnc(C(=O)NCc3ccc(F)c(Cl)c3)c2)nc1`: the RP-LC retention time worked out at 760 s.

`CC(C)c1nnc2n1CCN(C(=O)c1nn(C)c3ccccc13)C2` registered an RP-LC retention time of 647 s.

Compound `CCC1CN2C=Nc3oc(C)c(C(=O)NCCc4ccc(OC)c(OC)c4)c3C2=N1` (centres undefined) displayed an RP-LC retention time of 645 s.

In turn, `CN1C(=O)C2CCCCN2c2ccc(C(=O)NCCc3ccco3)cc21` (centres undefined) gave an RP-LC retention time of 815 s.

As to `CSc1ccc(-c2nc3ccc(Br)cn3c2NC2CCCCC2)cc1`, the RP-LC retention time worked out at 955 s.
